# According to patent US8772248B2, “Drug delivery system” (Keele University, priority 2004, dated 2014):
# Peptide text beside a SMILES is read from it.
# Key:
# rats = assay: Single dose toxicity study in rat; format: in vivo; settings: single oral dose 700 mg/kg
# Procedure: Toxicity testing required about 5 g of the thiodipeptide, Ala-ΨS-Ser.tfa (trifluoroacetate salt), which was delivered to rats as test subjects.
# Single oral dose of 700 mg/kg to 5 males and 5 females on day 1.
# Test Substance Formulation: The dose formulation was successfully prepared using physiological saline as the vehicle. The concentration of the test substance was 140 mg/ml, dosed at a volume of 5 ml/kg, resulting in a dose of 700 mg/kg.
# Resistance to hydrolysis = format: in vitro ADME
# PepT1 [1] = molecular target: T1, PepT1 (Oryctolagus cuniculus, UniProt P36836); assay: Uptake of [3H]-D-Phe-L-Gln in oocytes in competition with test compound (binding to PepT1)
# T1 construct: expressed in transfected cells
# T1 sequence (P36836 1-707): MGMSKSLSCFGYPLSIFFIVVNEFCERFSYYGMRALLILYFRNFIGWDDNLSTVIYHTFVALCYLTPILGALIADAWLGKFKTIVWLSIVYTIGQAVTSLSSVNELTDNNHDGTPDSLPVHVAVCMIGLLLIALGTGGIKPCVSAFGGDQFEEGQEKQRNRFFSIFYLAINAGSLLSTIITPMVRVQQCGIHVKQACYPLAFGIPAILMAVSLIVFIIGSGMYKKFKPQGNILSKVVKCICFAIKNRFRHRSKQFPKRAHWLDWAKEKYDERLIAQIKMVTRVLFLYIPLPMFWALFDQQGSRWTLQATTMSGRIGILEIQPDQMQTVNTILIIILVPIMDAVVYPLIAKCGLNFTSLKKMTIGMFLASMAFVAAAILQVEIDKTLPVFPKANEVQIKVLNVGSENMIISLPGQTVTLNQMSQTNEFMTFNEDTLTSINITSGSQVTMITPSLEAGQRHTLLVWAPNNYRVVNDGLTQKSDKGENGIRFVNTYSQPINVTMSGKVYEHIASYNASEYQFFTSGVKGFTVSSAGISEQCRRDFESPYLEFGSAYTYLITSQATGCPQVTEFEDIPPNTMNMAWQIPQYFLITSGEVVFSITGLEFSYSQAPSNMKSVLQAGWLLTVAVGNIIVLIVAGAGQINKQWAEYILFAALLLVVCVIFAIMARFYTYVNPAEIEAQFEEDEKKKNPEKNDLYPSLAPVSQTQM
# Procedure: Uptake of the radiolabelled dipeptide [^3H]-D-Phe-L-Gln (17.4 Ci/mmole, custom synthesised, Cambridge Research Biochemicals, Stockton-on-Tees, UK) in competition with the compounds to be tested, was performed as previously described (Meredith et al. J. Physiol., 1998, 512, 629-634). Briefly, 5 oocytes were incubated at room temperature in 100 μL of uptake medium (95 mM NaCl, 2 mM KCl, 1 mM CaCl2, 0.42 mM MgCl2, 10 mM Tris/Mes pH 5.5) with tracer (0.4 μM) [^3H]-D-Phe-L-Gln with or without a test compound at the appropriate concentration. After incubation for one hour, the oocytes were washed sequentially five times in 1 mL of ice-cold uptake medium, then lysed individually with 100 μL 2% (w/v) SDS in vials, and liquid scintillation counted.
# Quantitative binding data has been produced for a large number of thiodipeptide carriers with attached drug surrogates using the methodology described in Meredith et al., 1998, discussed supra, and is shown in Table 2 below, and in FIG. 7. Each of the thiopeptide carrier molecules shown is in accordance with the present invention, with each compound comprising a serine amino acid side chain group on the second amino acid residue.
# PepT1 [2] = molecular target: T1, PepT1; assay: Efflux / trans-stimulation assay in PepT1-expressing oocytes injected with [3H]-D-Phe-L-Gln; format: cell-based
# Procedure: Efflux experiments were performed as described in Temple et al., J. Biol. Chem., 1998, 273, 20-22. Briefly, PepT1-expressing oocytes were micro-injected with 4.6 nl of [^3H]-D-Phe-L-Gln (17.4 Ci/mmole) and allowed to recover for 15 minutes. 5 oocytes were incubated in […] uptake solution (pH 5.5) containing a potential substrate (i.e. a thiodipeptide-drug analogue conjugate) at 10 mM, with a negative control (i.e. uptake solution pH 5.5) and a positive control (i.e. 20 mM dipeptide Gly-Gln in pH 5.5 uptake solution). After 90 minutes incubation at room temperature, 50 μL of the medium was removed and placed in a scintillation vial for counting. The oocytes were washed sequentially five times in 1 mL of ice-cold uptake medium, then lysed individually with 100 μL 2% (w/v) SDS in vials, and liquid scintillation counted.
# Efflux of the radiolabelled dipeptide is a positive indication of active transport via PepT1.
# In the assays carried out, the dipeptide Gly-Gln (which is known to be transported by PepT1) caused about 30% of labelled D-Phe-L-Gln to remain in the oocytes. At the same concentration, the test substrates (the conjugates being tested) are assessed as follows:—
# <(measureable efflux, but less transport than Gly-Gln control, with ≧50% of D-Phe-L-Gln remaining)
# =(efflux similar to the effect of Gly-Gln, i.e. 25-50% of labelled D-Phe-L-Gln remaining)
# >(more efflux than Gly-Gln, i.e. <25% of labelled D-Phe-L-Gln remaining)
# There are no reports in the literature of thiodipeptides attached to drugs or drug analogues, and therefore no examples of such conjugates being actively transported.
# PepT1 [3] = assay: In vivo transport across the gut wall, rat jejenum, HPLC analysis
# Excerpt: (§1) In vivo transport experiments, using the methodology described in Lister et al. (J. Physiol., 1995, 484.1, 173-182), were used to investigate the importance of the thio group in the compounds according to the invention during transport of thiopeptides across the gut wall. […] For the purposes of this experiment, this thiopeptide was not conjugated to a drug analogue molecule. Then, using rat jejenum, they carried out direct measurements of transport of this test thiopeptide across the gut wall. […]
# PepT1 [4] = molecular target: T2, PepT1 (Rattus norvegicus, UniProt P51574); assay: as above; settings: 1 mM
# T2 construct: using rat jejenum; from tissue; host or cells: rat jejunum
# T2 sequence (P51574 1-710): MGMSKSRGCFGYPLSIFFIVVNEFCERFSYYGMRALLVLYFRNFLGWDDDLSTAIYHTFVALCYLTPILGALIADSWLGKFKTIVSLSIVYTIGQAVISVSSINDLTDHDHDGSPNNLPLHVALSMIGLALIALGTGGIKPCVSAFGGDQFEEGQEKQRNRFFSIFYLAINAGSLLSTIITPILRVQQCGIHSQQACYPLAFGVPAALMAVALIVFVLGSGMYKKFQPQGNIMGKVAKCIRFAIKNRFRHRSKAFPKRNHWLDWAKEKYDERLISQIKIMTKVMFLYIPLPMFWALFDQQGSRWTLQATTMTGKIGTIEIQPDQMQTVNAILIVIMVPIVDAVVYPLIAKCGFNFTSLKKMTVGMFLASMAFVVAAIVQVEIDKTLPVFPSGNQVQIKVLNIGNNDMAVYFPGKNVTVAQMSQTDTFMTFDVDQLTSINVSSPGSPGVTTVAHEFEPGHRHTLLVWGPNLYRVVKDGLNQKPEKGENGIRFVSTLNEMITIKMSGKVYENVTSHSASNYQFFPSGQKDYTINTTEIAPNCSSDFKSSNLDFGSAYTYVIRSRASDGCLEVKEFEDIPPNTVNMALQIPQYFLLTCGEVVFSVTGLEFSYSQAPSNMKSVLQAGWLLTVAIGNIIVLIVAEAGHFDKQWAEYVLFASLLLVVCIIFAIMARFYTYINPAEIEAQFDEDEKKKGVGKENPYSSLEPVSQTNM
# Excerpt: as §1
compound,measurement,setting,value
CC(N)C(=S)N[C@@H](CO)C(=O)O.O=C(O)C(F)(F)F (stereo partly shown) [Ala-ΨS-Ser.tfa],Intercurrent deaths,rats; 15 days,no intercurrent deaths
same,Clinical observations,rats; daily for 15 days,no treatment related findings
same,Bodyweights,rats; day 15,All animals had gained weight
same,Macroscopic findings at scheduled termination,rats; day 15,no macroscopic findings
CC(N)C(=S)NC(COCc1ccccc1)C(=O)O [D-Ala-ΨS-Ser(OBn)],resistance to hydrolysis,Resistance to hydrolysis,more hydrolysis resistant than its corresponding L-isomer
same,substrate for PepT1,PepT1 [1],substrate for PepT1
same,Ki,"PepT1 [1]; competition with 0.4 μM [3H]-D-Phe-L-Gln, oocytes, pH 5.5, one hour",1070 µM
NCC(=O)N[C@@H](CCC(N)=O)C(=O)O [Gly-Gln] (H-Gly-Gln-OH),cpm remaining in oocytes,"PepT1 [2]; 10 mM, average from 5 experiments",1347 (+/−126) cpm
same,efflux,PepT1 [2]; at 10 mM,72%
same,labelled D-Phe-L-Gln remaining in the oocytes,"PepT1 [2]; positive control Gly-Gln, pH 5.5, 90 minutes",about 30%
"C[C@H](NC(=S)[C@@H](N)Cc1ccccc1)C(=O)O [thiopeptide analogue of L-Phe-L-Ala, Phe-ΨS-Ala]",resistance to peptidases of the small intestine,PepT1 [3],resistant to the peptidases
same,transport rate,PepT1 [4],3.09 (+/−0.047) micromol/min/g of whole dry intestine
same,transport rate relative to control dipeptide D-Phe-L-Gln,PepT1 [4],about 13 times
